We go through one compound from patent US20180105548A1, “A novel compound (KS-513) isolated from Pseudolysimachion rotundum var. subintegrum, the composition comprising the same preventing or treating allergic disease, inflammatory disease, asthma or chronic obstructive pulmonary disease and the use thereof” (priority 2015, published 2018).

The test system of one assay is IL-6. As to the kind of experiment: mRNA expression of IL-6 in RAW264.7 cell line induced by LPS (real-time PCR). Type of assay: cell-based, mouse. The settings on record: for IL-6 mRNA expression, Fold (value compared with a negative group) / IL-6 mRNA expression, Inhibition ratio (IR) compared with LPS treatment group: LPS 1 μg/ml, 12 hours. The procedure:
In order to determine the inhibitory effect on the mRNA expression of pro-inflammatory medicated enzyme such as iNOS or COX-2, and pro-inflammatory medicated cytokines such as IL-1beta, IL-6, TNF-alpha in RAW264.7 cell line induced by LPS, following test using by real-time PCR (real-time polymerase chain reaction, quantitative real time polymerase chain reaction, qPCR) was performed according to the method disclosed in the literature (Livak, K. J., Schimittgen T. D., 2001, Analysis of relative gene expression data using real-time quantitiative PCR and the 2 (-Delta Delta C(T) method, Methods 25, p 402-408):
RAW264.7 cell was inoculated into 6-well-plates in the concentration of 1×10^6 cell/well to incubate for 12 hours. Various concentration of KS-513 compound (2.5, 5, 10 and 20 μM) was pre-treated therewith and 1 μg/mL of LPS (L6529, Sigma) was added thereto to incubate for 12 hours.
To extract total RNA, RNA was extracted using by Triazol B (invitrogen) and cDNA was synthesized using by Omniscript RT kit (205113, Qiagen, Gmbh, Hilden, Germany) after the quantification. The synthesized cDNA was mixed with its template and the primers shown in Table 3 (SEQ.I.D. 1-14), performed to denaturation at 94° C. for 5 mins using by PCR mix (PCR master Mix, Bioneer, Korea), and reacted as follows: 1 cycle for pre-denaturation; at 95° C. for 30 sec, 60° C. for 45 sec, 72° C. for 45 sec, 30 cycles for denaturation; 10 mins at 72° C., 1cycle for final extension. (FIG. 2)

Another assay deals with IL-1beta. The experiment in a line: IL-1beta production in LPS-treated RAW264.7 cell (ELISA). It is filed as cell-based, mouse. Particulars: for IL-1beta production (relative % comparing with LPS treatment group) / IL-1beta production, Inhibitory ratio (%): LPS 1 μg/mL, 24 hours. The procedure: RAW264.7 cell was inoculated into 96 well plates in the concentration of 1×10^5 cell/well to incubate for 18 hours. Various concentration of KS-513 compound (2.5, 5, 10 and 20 μM) was pre-treated therewith and 1 μg/mL of LPS (L6529, Sigma) was added thereto to incubate for 24 hours. The level of inflammatory cytokines such as IL-1beta, IL-6, TNF-alpha etc in the cell medium was determined by ELISA kit (IL-1beta:559603, IL-6:555240, TNF-alpha:5558534, BD) and the result was shown in FIG. 5 and Table 7-9.
In general terms: An ELISA detects its analyte on a solid surface through an enzyme-linked reagent.

As to `CO[C@@H]1C[C@H]2[C@H](OC(=O)c3ccc(O)cc3)[C@@H]3O[C@]3(CO)[C@H]2[C@H](O[C@@H]2O[C@H](CO)[C@@H](O)C(O)[C@H]2O)O1` (stereo partly drawn) [KS-513, (1aS, 1bS,2S,4S,5aR,6S,6aS)-1a-(hydroxymethyl)-4-methoxy-2-(((2S,3R,5S,6R)-3,4,5-trihydroxy-6-(hydroxymethyl)tetrahydro-2H-pyran-2-yl)oxy)octahydrooxireno[2′,3′:4,5]cyclopenta[1,2-c]pyran-6-yl 4-hydroxybenzoate], the “IL-6 mRNA expression, Fold (value compared with a negative group)” value in the assay on IL-6 (2.5 μM) was 24.73 ± 2.26 Fold; in the assay with IL-6 (5 μM), 14.24 ± 1.44 Fold; in the assay with IL-6 (10 μM), 8.57 ± 1.23 Fold; in the assay on IL-6 (20 μM), 2.35 ± 0.81 Fold. Also, the “IL-6 mRNA expression, Inhibition ratio (IR) compared with LPS treatment group” value in the assay with IL-6 (2.5 μM) is on record as 20.62%; in the assay with IL-6 (5 μM), 54.30%; in the assay with IL-6 (10 μM), 72.50%; in the assay on IL-6 (20 μM), 92.46%. For the same compound, the “expressed level of mRNA of IL-6” value with IL-6 (various concentration, compared with control group treated with LPS (100%)) was “significantly decreased in a dose dependent manner”. The “IL-1beta production (relative % comparing with LPS treatment group)” value in the assay on IL-1beta (2.5 μM) was 95.17 ± 3.68%; with IL-1beta (5 μM), 76.69 ± 3.40%; with IL-1beta (10 μM) it was 61.56 ± 3.18%; with IL-1beta (20 μM), 46.10 ± 2.51%. The “IL-1beta production, Inhibitory ratio (%)” value with IL-1beta (2.5 μM) was 4.83%; in the assay with IL-1beta (5 μM), 23.31%; with IL-1beta (10 μM) it was 38.44%; with IL-1beta (20 μM) it was 53.9%. Moreover, in the assay with IL-1beta (vs LPS treatment group (1 μg/ml), FIG. 5), the “level of produced IL-1beta” value is given as “reduced in a dose dependent manner”.
